Laboratory results: patent EP2902035B1, “Cell-permeable peptide inhibitors of the JNK signal transduction pathway for use in the treatment of inflammatory eye diseases” (Xigen Inflammation Ltd., priority 2010, dated 2012)

What was measured:
healthy eyes = tested on: healthy eyes; design: species or system Lewis rats; conditions: rat, in vivo
Description: For immunohistochemistry, eyeballs were collected and fixed for 1h at room temperature in phosphate buffered saline (PBS) containing 4% paraformaldehyde before being rinsed overnight in PBS. The next day, samples were embedded and frozen in optimal cutting-temperature (OCT) compound (Tissue-Tek®, Sakura Finetek, Zoeterwoude, Netherland) and stored at -80°C. Frozen antero-posterior sections of eyes (10 µm thick) were performed at the optic nerve level using a cryostat (Leica CM 3050S, Rueil-Malmaison, France) and mounted on super-frost slides for immunohistochemical analysis.
A second set of experiment was designed to evaluate the anti-inflammatory effect of the JNK-inhibitor (poly-)peptide of SEQ ID NO: 11 at the cellular and tissue level as well as the biodistribution of this molecule 24 hours after administration. Rats were randomized into 11 experimental groups. 6 groups of rats with uveitis: untreated uveitic rats, rats injected intravenously with NaCl or the JNK-inhibitor (poly-)peptide of SEQ ID NO: 11 and rats injected intravitreously with the vehicle, the JNK-inhibitor (poly-)peptide of SEQ ID NO: 11 or dexamethasone. The 5 additional groups without uveitis were: untreated healthy rats, rats treated by NaCl IV or the JNK-inhibitor (poly-)peptide of SEQ ID NO: 11 IV and rats injected IVT with NaCl or the JNK-inhibitor (poly-)peptide of SEQ ID NO: 11. […]

iNOS mRNA = assay: iNOS expression in ocular tissues by semi-quantitative PCR in EIU; assay type: in vivo, Lewis rats; conditions: retinas
Description: Retinas and RPE/choroid/sclera complexes were also collected at 24 hours to analyze iNOS mRNA levels by RT-PCR and c-Jun phosphorylation state by Western-Blot. Tissues were collected only from eyes treated by IV (intravenous) injection of vehicle, IV injection of the JNK-inhibitor (poly-)peptide of SEQ ID NO: 11, IVT (intravitreal) injection of vehicle and IVT injection of the JNK-inhibitor (poly-)peptide of SEQ ID NO: 11 (n=2 eyes per condition collected from separate rats). Eyes were selected so that their EIU clinical score was representative of the mean of the experimental group they belong to, i.e 3 for eyes treated by IV and IVT injection of vehicle and 2 for eyes treated by IV or IVT injection of the JNK-inhibitor (poly-)peptide of SEQ ID NO: 11.
Two eyes per group were used for this analysis. Immediately after dissection, retinas extracted from each eye were separately snap frozen and stored at -80°C until use. Total RNA was extracted from tissues (RNeasy minikit, Qiagen, Courtaboeuf, France) according to the manufacturer's instructions. […] PCR fragments (162 bp for GAPDH and 657 bp for iNOS) were analyzed by 2.5% agarose gel electrophoresis and visualized by ethidium bromide staining under UV light. The relative band intensity for iNOS was calculated in comparison to that for GAPDH after densitometry analysis (ImageJ software).

[1] = tested on: chemokines/ cytokines in the serum; assay: Chemokine/Cytokine Multiplex Assay on serum in EIU; assay type: in vivo, Lewis rats; conditions: tendency, not statistically significant
Description: Aqueous humor and vitreous were collected and pooled from each enucleated eye. Ocular fluids were immediately centrifuged and the cell-free fractions were collected and frozen at -20°C before analysis by Multiplex assay. Blood samples were first clotted at room temperature for 2 hours and then at 4°C overnight. Serum was collected, centrifuged and the clear supernatant was collected and frozen at -20°C before Multiplex analysis.
In a first set of experiment, 70 rats were randomized into 14 experimental groups with 5 rats per group. Uveitis was induced in each group and rats were killed 6 hours (4 groups), 24 hours (6 groups) and 48 hours (4 groups) after LPS challenge. For each time point tested (i.e. 6h, 24h and 48h), rats treated by intravenous or intravitreous injections of vehicle (NaCl 0.9%) or the JNK-inhibitor (poly-)peptide of SEQ ID NO: 11 were compared to untreated control uveitic rats. Two additional groups, treated by intravenous injection of vehicle and intravitreal injection of dexamethasone were used at 24 hours. Clinical ocular inflammation was recorded only at 24 hours (see Scoring of Endotoxin-Induced Uveitis (EIU) section). At each time point, intraocular fluids from each eye (n=10 per group) and serum from each animal (n=5 per group) were used for Chemokine/Cytokine Multiplex Assay.
Intraocular fluids (diluted to obtain a final volume of 25 µL) and sera (25 µL of 1:5 dilution) were subjected to multiplex bead analysis. This method uses microspheres as the solid support for immunoassays 12 and allows the titration of a greater number of cytokines with increased sensitivity than occurs with ELISA.13 For each sample, seventeen analytes were quantified simultaneously using the rat Cytokine/Chemokine-17plex kit (Milliplex Map Kit, Millipore, Saint-Quentin-en-Yvelines, France) according to the manufacturer's instructions: Chemokines MCP-1/CCL2, MIP-1α/CCL3, RANTES/CCL5, IP-10/CXCL10 (IFN-inducible protein-10) and GRO/KC; proinflammatory mediators IL-1, IL-18 and TNF-; Th1/Th2/Th17 cytokines IL-2 and IFN- / IL-4, IL-5, IL-6, IL-10 and IL-13 / IL-17. […]

Compound: CC(C)C[C@@H](NC(=O)[C@@H](Cc1ccccc1)NC(=O)[C@H]1CCCN1C(=O)[C@@H](CCC(N)=O)NC(=O)[C@H](NC(=O)[C@H]1CCCN1C(=O)[C@@H](CCCNC(=N)N)NC(=O)[C@@H](CO)NC(=O)[C@@H](CCC(N)=O)NC(=O)[C@H](N)CC(=O)O)C(C)C)C(=O)N[C@H](CC(N)=O)C(=O)N[C@H](CC(C)C)C(=O)N[C@@H](C(=O)N[C@@H](C(=O)N1CCC[C@@H]1C(=O)N[C@H](CCCNC(=N)N)C(=O)N[C@H](CCCCN)C(=O)N1CCC[C@@H]1C(=O)N[C@H](CCCNC(=N)N)C(=O)N1CCC[C@@H]1C(=O)N1CCC[C@@H]1C(=O)N[C@H](CCCNC(=N)N)C(=O)N[C@H](CCCNC(=N)N)C(=O)N[C@H](CCCNC(=N)N)C(=O)N[C@H](CCC(N)=O)C(=O)N[C@H](CCCNC(=N)N)C(=O)N[C@H](CCCNC(=N)N)C(=O)N[C@H](CCCCN)C(=O)N[C@H](CCCCN)C(=O)N[C@H](CCCNC(=N)N)C(=O)NCC(=O)O)[C@H](C)O)[C@H](C)O [SEQ ID NO: 11]
- inflammatory cell infiltration in healthy eyes (healthy eyes): No inflammatory cell infiltration
- Levels of iNOS mRNA (relative band intensity in comparison to GAPDH) (iNOS mRNA; 24 hours after IV): 0.40 ± 0.11
- Levels of iNOS mRNA (relative band intensity in comparison to GAPDH) (iNOS mRNA; 24 hours after IVT injection): 0.27 ± 0.09
- IL-2 ([1]; after IV administration): reduction
- MIP-1α ([1]; after IV administration): reduction
- IL-2 ([1]; after IVT): reduction
